Experimental data taken from PubChem BioAssay (NCI).
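Five compound concentrations were applied to cells in 96-well plates for 48 hours; endpoints were derived by simple linear interpolation of the resulting dose-response curve. TGI marks complete inhibition of growth.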

Assays:
Experiment in all cases: NCI anticancer screen, dose series, 48 h
KM20L2 colon = tested on: KM20L2 colon
M14 melanoma = tested on: M14 melanoma
A549 NSCLC = tested on: A549 NSCLC
DLD-1 colon = tested on: DLD-1 colon
MOLT-4 leukemia = tested on: MOLT-4 leukemia
IGROV1 ovarian = tested on: IGROV1 ovarian
HT29 colon = tested on: HT29 colon
SF-268 CNS = tested on: SF-268 CNS
786-0 renal = tested on: 786-0 renal
NCI-H522 lung = tested on: NCI-H522 lung
DMS 114 small cell lung = tested on: DMS 114 small cell lung
HOP-92 NSCLC = tested on: HOP-92 NSCLC

CCCC(C(=O)OC)C1N=C(NC#N)N(Cc2ccccc2)C1=O (stereo not drawn)
TGI (KM20L2 colon): > 100 µM
TGI (M14 melanoma): > 100 µM
TGI (A549 NSCLC): > 100 µM
TGI (DLD-1 colon): > 100 µM
TGI (MOLT-4 leukemia): > 100 µM
TGI (IGROV1 ovarian): > 100 µM
TGI (HT29 colon): > 100 µM
TGI (SF-268 CNS): > 100 µM
TGI (786-0 renal): > 100 µM
TGI (NCI-H522 lung): > 100 µM
TGI (DMS 114 small cell lung): > 100 µM

CC(C)C(CCOS(=O)(=O)O)CCC(C)[C@H]1[C@@H](O)C(O)C2[C@]3(O)C[C@@H](O)C4(O)C[C@@H](O)CC[C@]4(C)C3CC[C@@]21C (stereo partly drawn)
TGI (KM20L2 colon): > 100 µM
TGI (M14 melanoma): > 100 µM
TGI (A549 NSCLC): > 100 µM
TGI (DLD-1 colon): > 100 µM
TGI (IGROV1 ovarian): > 100 µM
TGI (HT29 colon): > 100 µM
TGI (SF-268 CNS): > 100 µM
TGI (HOP-92 NSCLC): > 100 µM
TGI (786-0 renal): > 100 µM
TGI (NCI-H522 lung): > 100 µM
TGI (DMS 114 small cell lung): > 100 µM

CC1CCc2c(sc3ncnc(N/N=C/c4ccc(Cl)cc4)c23)C1 (stereo not drawn)
TGI (KM20L2 colon): 62.7 µM
TGI (M14 melanoma): 68.2 µM
TGI (A549 NSCLC): > 100 µM
TGI (DLD-1 colon): > 100 µM
TGI (MOLT-4 leukemia): 57.3 µM
TGI (IGROV1 ovarian): > 100 µM
TGI (HT29 colon): > 100 µM
TGI (SF-268 CNS): > 100 µM
TGI (786-0 renal): > 100 µM
TGI (NCI-H522 lung): 65.1 µM

CC(N)C(C)c1ccccc1 (stereo not drawn)
TGI (KM20L2 colon): > 100 µM
TGI (M14 melanoma): > 100 µM
TGI (A549 NSCLC): > 100 µM
TGI (DLD-1 colon): > 100 µM
TGI (MOLT-4 leukemia): > 100 µM
TGI (IGROV1 ovarian): > 100 µM
TGI (HT29 colon): > 100 µM
TGI (SF-268 CNS): > 100 µM
TGI (HOP-92 NSCLC): > 100 µM
TGI (786-0 renal): > 100 µM
TGI (NCI-H522 lung): > 100 µM
TGI (DMS 114 small cell lung): > 100 µM

COc1ccc(-c2cc(=O)c3cc(O)ccc3o2)c(OC)c1OC
TGI (KM20L2 colon): 58.1 µM
TGI (M14 melanoma): > 100 µM
TGI (A549 NSCLC): > 100 µM
TGI (DLD-1 colon): > 100 µM
TGI (IGROV1 ovarian): > 100 µM
TGI (HT29 colon): > 100 µM
TGI (SF-268 CNS): 93 µM
TGI (HOP-92 NSCLC): 98 µM
TGI (786-0 renal): > 100 µM
TGI (NCI-H522 lung): 64.6 µM
TGI (DMS 114 small cell lung): > 100 µM

NC(CSCSCC(N)C(=O)O)C(=O)O (stereo not drawn)
TGI (KM20L2 colon): > 225 µM
TGI (A549 NSCLC): > 225 µM
TGI (DLD-1 colon): > 225 µM
TGI (MOLT-4 leukemia): > 225 µM
TGI (IGROV1 ovarian): > 225 µM
TGI (HT29 colon): > 225 µM
TGI (SF-268 CNS): > 225 µM
TGI (HOP-92 NSCLC): > 225 µM
TGI (NCI-H522 lung): > 225 µM
TGI (DMS 114 small cell lung): > 225 µM

C/C(CCN(C)C)=N\OC(=O)c1ccccc1
TGI (KM20L2 colon): > 100 µM
TGI (M14 melanoma): > 100 µM
TGI (A549 NSCLC): > 100 µM
TGI (DLD-1 colon): > 100 µM
TGI (MOLT-4 leukemia): > 100 µM
TGI (IGROV1 ovarian): > 100 µM
TGI (HT29 colon): > 100 µM
TGI (SF-268 CNS): > 100 µM
TGI (HOP-92 NSCLC): > 100 µM
TGI (786-0 renal): > 100 µM
TGI (NCI-H522 lung): > 100 µM
TGI (DMS 114 small cell lung): > 100 µM

CN1CCc2c(sc3ncn(Nc4ccc(F)cc4)c(=N)c23)C1
TGI (M14 melanoma): > 100 µM
TGI (A549 NSCLC): > 100 µM
TGI (MOLT-4 leukemia): > 100 µM
TGI (IGROV1 ovarian): > 100 µM
TGI (HT29 colon): > 100 µM
TGI (SF-268 CNS): > 100 µM
TGI (HOP-92 NSCLC): > 100 µM
TGI (786-0 renal): > 100 µM
TGI (NCI-H522 lung): > 100 µM

CCN(CC)CCSc1c(C(C)=O)c(=O)n(-c2ccccc2)c(=S)n1-c1ccccc1
TGI (M14 melanoma): 4.12 µM
TGI (A549 NSCLC): 30 µM
TGI (MOLT-4 leukemia): 19.3 µM
TGI (IGROV1 ovarian): 27.2 µM
TGI (HT29 colon): 37.7 µM
TGI (SF-268 CNS): 35.8 µM
TGI (HOP-92 NSCLC): 5.8 µM
TGI (786-0 renal): 3.38 µM
TGI (NCI-H522 lung): 5.54 µM

CN(Cc1cnc2nc(N)nc(N)c2n1)c1ccc(C(=O)NCCCC(=O)O)cc1
TGI (M14 melanoma): > 100 µM
TGI (A549 NSCLC): > 100 µM
TGI (MOLT-4 leukemia): > 100 µM
TGI (IGROV1 ovarian): > 100 µM
TGI (HT29 colon): > 100 µM
TGI (SF-268 CNS): > 100 µM
TGI (HOP-92 NSCLC): > 100 µM
TGI (786-0 renal): > 100 µM
TGI (NCI-H522 lung): > 100 µM

CN(/N=C/C=N/N(C)C1=NCCN1)C1=NCCN1
TGI (M14 melanoma): > 100 µM
TGI (A549 NSCLC): > 100 µM
TGI (MOLT-4 leukemia): > 100 µM
TGI (IGROV1 ovarian): > 100 µM
TGI (HT29 colon): > 100 µM
TGI (SF-268 CNS): > 100 µM
TGI (HOP-92 NSCLC): > 100 µM
TGI (786-0 renal): > 100 µM
TGI (NCI-H522 lung): > 100 µM

CCCCCCCCCCCCc1ccsc1-c1ccc(-c2ccc(-c3sccc3CCCCCCCCCCCC)s2)s1
TGI (M14 melanoma): > 100 µM
TGI (A549 NSCLC): > 100 µM
TGI (MOLT-4 leukemia): > 100 µM
TGI (IGROV1 ovarian): > 100 µM
TGI (HT29 colon): > 100 µM
TGI (SF-268 CNS): > 100 µM
TGI (HOP-92 NSCLC): > 100 µM
TGI (786-0 renal): > 100 µM
TGI (NCI-H522 lung): > 100 µM

CC(C)=CCc1cc(/C=C/C(=O)O)cc(CC=C(C)C)c1O
TGI (M14 melanoma): > 100 µM
TGI (A549 NSCLC): > 100 µM
TGI (MOLT-4 leukemia): > 100 µM
TGI (IGROV1 ovarian): > 100 µM
TGI (HT29 colon): > 100 µM
TGI (SF-268 CNS): > 100 µM
TGI (HOP-92 NSCLC): > 100 µM
TGI (786-0 renal): > 100 µM
TGI (NCI-H522 lung): > 100 µM

C=C(C)COc1cc(NC(=S)OC(C)C)ccc1Cl
TGI (M14 melanoma): 31.7 µM
TGI (A549 NSCLC): 25.8 µM
TGI (MOLT-4 leukemia): 34.3 µM
TGI (IGROV1 ovarian): 31 µM
TGI (HT29 colon): 28.4 µM
TGI (SF-268 CNS): 40.6 µM
TGI (HOP-92 NSCLC): 26.7 µM
TGI (786-0 renal): 30.5 µM
TGI (NCI-H522 lung): 29.1 µM

COc1ccc2nc3cc(Cl)ccc3c(NCCCCCC(=O)NC(COc3ccc4ccc5cccnc5c4n3)COc3ccc4ccc5cccnc5c4n3)c2c1
TGI (M14 melanoma): 57.7 µM
TGI (A549 NSCLC): 50.1 µM
TGI (MOLT-4 leukemia): 12.7 µM
TGI (IGROV1 ovarian): 37.4 µM
TGI (HT29 colon): > 100 µM
TGI (SF-268 CNS): 34.9 µM
TGI (HOP-92 NSCLC): 44.1 µM
TGI (786-0 renal): 28.8 µM
TGI (NCI-H522 lung): 81.1 µM

O=C1CN(c2ccccc2)C(=O)CN1NCNN1CC(=O)N(c2ccccc2)CC1=O
TGI (M14 melanoma): > 100 µM
TGI (A549 NSCLC): > 100 µM
TGI (MOLT-4 leukemia): > 100 µM
TGI (IGROV1 ovarian): > 100 µM
TGI (HT29 colon): > 100 µM
TGI (SF-268 CNS): > 100 µM
TGI (HOP-92 NSCLC): > 100 µM
TGI (786-0 renal): > 100 µM
TGI (NCI-H522 lung): > 100 µM
